Drawing on patent US20250179059A1 (The Regents of the University of California, priority 2021, published 2025), this text covers IC50 and GI50 for 25 molecules.

Like-named read-outs stand apart in the source and are kept apart here.

Assay [1] concerns the target T1, human BRD4 bromodomain II (Homo sapiens, UniProt O60885).
T1 construct: human BRD4 bromodomain II [based on Genbank NM_058243, residues 349-460]; host or cells: E. coli
Briefly: Bromodomain binding assay (AlphaScreen), BRD4 BDII. Put shortly: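 Read-out is AlphaScreen signal (ex 680 nm, em 520-620 nm) from streptavidin donor beads on a biotinylated acetylated histone H4 (aa 1-21) peptide and nickel acceptor beads on the His6-tagged bromodomain. IC50 values come from curve fits of percentage peptide binding against compound concentration.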

The test system of assay [2] is human SKM-1 acute myeloid leukemia cells. Briefly: SKM-1 antiproliferation cell-based assay (ATPlite). The settings on record: Homo sapiens. Put shortly:
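Log-phase cells in RPMI 1640/15% FBS were seeded at 34722 cells/mL and exposed for 4 days to nine-concentration DMSO serial dilutions in triplicate. Viability was read as ATP luminescence (ATPlite 1step), and IC50 values came from variable-slope non-linear regression.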

The mark [3] stands for this setting: AlphaScreen assay, Table C2, read-out: BRD4 BDII IC50.
Where [4] appears, read: SKM-1, 96 h, SKM-1 antiproliferation assay, 4 days, Table C2.
Where [5] appears, read: BRD4 BDII AlphaScreen assay, read-out: BRD4 BD2 IC50.
[6] abbreviates: SKM-1, SKM-1 antiproliferation assay.

What is called IC50 is the concentration needed to halve the response being measured. Broadly, the GI50 is the concentration that inhibits growth by half. Lower therefore signals greater sensitivity of the cells. For `CN1CCN(c2ccc(-c3cc(F)cc(-c4ccnc(N5CCC(N)CC5)c4)c3O)cc2Cl)C1=O` [Example 350, 1-(3′-(2-(4-aminopiperidin-1-yl)pyridin-4-yl)-3-chloro-5′-fluoro-2′-hydroxy-[1,1′-biphenyl]-4-yl)-3-methylimidazolidin-2-one], the IC50 in assay [1] (setting [3]) is 10 to 100 nM. In assay [2] (setting [4]), the GI50 was 30 to 300 nM.
`CSc1ncc(-c2cc(F)cc(-c3ccc(-n4ccn(C)c4=O)c(Cl)c3)c2O)cc1N1CCN(C(C)(C)C)CC1` [Example 821, 1-(3′-(5-(4-(tert-butyl)piperazin-1-yl)-6-(methylthio)pyridin-3-yl)-3-chloro-5′-fluoro-2′-hydroxy-[1,1′-biphenyl]-4-yl)-3-methyl-1H-imidazol-2(3H)-one]: the IC50 in assay [1] (setting [3]) was 1 to 10 nM. Besides, the GI50 in assay [2] (setting [4]) was 0.3 to 30 nM.
The like results for `CC(C)N1CC2CN(c3cc(-c4cc(F)cc(-c5ccc(-n6ccn(C)c6=O)c(Cl)c5)c4O)ccn3)CC21` (centres unmarked) [Example 747, 1-(3-chloro-5′-fluoro-2′-hydroxy-3′-(2-(6-isopropyl-3,6-diazabicyclo[3.2.0]heptan-3-yl)pyridin-4-yl)-[1,1′-biphenyl]-4-yl)-3-methyl-1H-imidazol-2(3H)-one] were, in that order, 0.01 to 1 nM and 0.3 to 30 nM.
For the molecule `Cc1cc(-c2ccnc(N3CCNCC3)c2)c(O)c(-c2ccc(-n3ccn(C)c3=O)c(Cl)c2)c1` [Example 420, 1-(3-chloro-2′-hydroxy-5′-methyl-3′-(2-(piperazin-1-yl)pyridin-4-yl)-[1,1′-biphenyl]-4-yl)-3-methyl-1H-imidazol-2(3H)-one], the IC50 in assay [1] (setting [3]) lay within 0.01 to 1 nM. In assay [2] (setting [4]), the GI50 is 0.3 to 30 nM.
On to `CN1CCN(c2ccc(-c3cccc(-c4cncc(N5CCCC(N)C5)c4)c3O)cc2Cl)C1=O` (centres unmarked) [Example 325, 1-(3′-(5-(3-aminopiperidin-1-yl)pyridin-3-yl)-3-chloro-2′-hydroxy-[1,1′-biphenyl]-4-yl)-3-methylimidazolidin-2-one], for which, in assay [1] (setting [3]), the concentration for half-maximal inhibition (IC50) lay in the range of 1 to 10 nM. The GI50 in assay [2] (setting [4]) fell in the range of 30 to 300 nM.
Take `CCc1cc(-c2cccc(-c3ccc(N4CCN(C)C4=O)c(Cl)c3)c2O)cc(N2CCNCC2)n1` [Example 374, 1-(3-chloro-3′-(2-ethyl-6-(piperazin-1-yl)pyridin-4-yl)-2′-hydroxy-[1,1′-biphenyl]-4-yl)-3-methylimidazolidin-2-one]: the IC50 in assay [1] (setting [3]) fell in the range of 1 to 10 nM. This molecule also came in with a GI50 in assay [2] (setting [4]) of 300 to 3000 nM.
`[2H]C([2H])([2H])n1ccn(-c2ccc(-c3cc(F)cc(-c4cnc(OC)c(N5CCN(C(C)(C)C)CC5)c4)c3O)cc2Cl)c1=O` [Example 938, 1-(3′-(5-(4-(tert-butyl)piperazin-1-yl)-6-methoxypyridin-3-yl)-3-chloro-5′-fluoro-2′-hydroxy-[1,1′-biphenyl]-4-yl)-3-(methyl-d3)-1,3-dihydro-2H-imidazol-2-one]: the IC50 in assay [1] (setting [5]) is 1 to 10 nM. The GI50 in assay [2] (setting [6]) fell in the range of 0.3 to 30 nM.
As for `CC(C)[C@@H]1CN(c2cc(-c3cc(F)cc(-c4ccc(-n5ccn(C)c5=O)c(Cl)c4)c3O)cc3[nH]ncc23)CCN1` [Example 597, (R)-1-(3-chloro-5′-fluoro-2′-hydroxy-3′-(4-(3-isopropylpiperazin-1-yl)-1H-indazol-6-yl)-[1,1′-biphenyl]-4-yl)-3-methyl-1H-imidazol-2(3H)-one], the IC50 in assay [1] (setting [3]) fell in the range of 1 to 10 nM. Further, the GI50 in assay [2] (setting [4]) was 0.3 to 30 nM.
For `CN[C@H]1CCN(c2cc(-c3cc(F)cc(-c4ccc(-n5ccn(C)c5=O)c(Cl)c4)c3O)cc(NC(C)=O)n2)C1` [Example 519, (S)-N-(4-(3′-chloro-5-fluoro-2-hydroxy-4′-(3-methyl-2-oxo-2,3-dihydro-1H-imidazol-1-yl)-[1,1′-biphenyl]-3-yl)-6-(3-(methylamino)pyrrolidin-1-yl)pyridin-2-yl)acetamide], the IC50 in assay [1] (setting [3]) fell in the range of 1 to 10 nM. The same molecule yielded a GI50 in assay [2] (setting [4]) of 0.3 to 30 nM.
Turning to `CN1CCCC12CCN(c1cc(-c3cc(F)cc(-c4ccc(-n5ccn(C)c5=O)c(Cl)c4)c3O)ccn1)C2` (centres unmarked) [Example 637, 1-(3-chloro-5′-fluoro-2′-hydroxy-3′-(2-(1-], the concentration for half-maximal inhibition (IC50) in assay [1] (setting [3]) lay in the range of 0.01 to 1 nM. For the same molecule, in assay [2] (setting [4]), the GI50 fell in the range of 0.3 to 30 nM.
Consider `Cn1ccn(-c2ccc(-c3cc(F)cc(-c4cccc(-c5cccc(N)c5)c4)c3O)cc2Cl)c1=O` [Example 862], for which the IC50 in assay [1] (setting [5]) was in the range of 10 to 100 nM. Also, the GI50 in assay [2] (setting [6]) was 300 to 3000 nM.
As to `Cn1ccn(-c2ccc(-c3cc(F)cc(-c4cnnc(N5CC[C@](C)(O)C5)c4)c3O)cc2Cl)c1=O` [Example 837, (S)-1-(3-chloro-5′-fluoro-2′-hydroxy-3′-(6-(3-hydroxy-3-methylpyrrolidin-1-yl)pyridazin-4-yl)-[1,1′-biphenyl]-4-yl)-3-methyl-1H-imidazol-2(3H)-one], the concentration for half-maximal inhibition (IC50) in assay [1] (setting [3]) was 0.01 to 1 nM. This molecule showed a GI50 in assay [2] (setting [4]) of 30 to 300 nM.
As for `CCN1CCN(c2cc(-c3cc(F)cc(-c4ccc(-n5ccn(C)c5=O)c(Cl)c4)c3O)ccn2)CC1` [Example 469, 1-(3-chloro-3′-(2-(4-ethylpiperazin-1-yl)pyridin-4-yl)-5′-fluoro-2′-hydroxy-[1,1′-biphenyl]-4-yl)-^3-methyl-1H-imidazol-2(3H)-one], the concentration for half-maximal inhibition (IC50) in assay [1] (setting [3]) is 0.01 to 1 nM. In assay [2] (setting [4]), this molecule yielded a GI50 of 0.3 to 30 nM.
On to `Cn1ccn(-c2ccc(-c3cc(F)cc(-c4ccnc(N5CCN[C@H](CO)C5)c4)c3O)cc2Cl)c1=O` [Example 556, (S)-1-(3-chloro-5′-fluoro-2′-hydroxy-3′-(2-(3-(hydroxymethyl)piperazin-1-yl)pyridin-4-yl)-[1,1′-biphenyl]-4-yl)-3-methyl-1H-imidazol-2(3H)-one], for which the 50% inhibitory concentration (IC50) in assay [1] (setting [3]) lay within 1 to 10 nM. In assay [2] (setting [4]), this molecule gave a concentration for 50% growth inhibition (GI50) of 0.3 to 30 nM.
Regarding `COc1ncc(-c2nc(C)cc(-c3ccc(-n4ccn(C)c4=O)c(Cl)c3)c2O)cc1N1CCN(C(C)(C)C)CC1` [Example 959, 1-(4-(5′-(4-(tert-butyl)piperazin-1-yl)-3-hydroxy-6′-methoxy-6-methyl-[2,3′-bipyridin]-4-yl)-2-chlorophenyl)-3-methyl-1,3-dihydro-2H-imidazol-2-one], the IC50 in assay [1] (setting [5]) was in the range of 1 to 10 nM. In assay [2] (setting [6]), this molecule displayed a GI50 of 0.3 to 30 nM.
Consider `CN1CCN(c2ccc(-c3cc(C4CC4)cc(-c4ccnc(N5CCNCC5)c4)c3O)cc2Cl)C1=O` [Example 316, 1-(3-chloro-5′-cyclopropyl-2′-hydroxy-3′-(2-(piperazin-1-yl)pyridin-4-yl)-[1,1′-biphenyl]-4-yl)-3-methylimidazolidin-2-one], for which the IC50 in assay [1] (setting [3]) was 1 to 10 nM. Further, the GI50 in assay [2] (setting [4]) was in the range of 300 to 3000 nM.
The matching figures for `Cc1cc(-c2cc(-c3cn[nH]c3)cc(N3CCNCC3)c2)c(O)c(-c2ccc(-n3ccn(C)c3=O)c(Cl)c2)c1` [Example 570]: 1 to 10 nM and 0.3 to 30 nM.
Consider `CC1=CCN(c2ccc(-c3cccc(-c4ccnc(N5CCNCC5)c4)c3O)cc2Cl)C1=O` [Example 356, 1-(3-chloro-2′-hydroxy-3′-(2-(piperazin-1-yl)pyridin-4-yl)-[1,1′-biphenyl]-4-yl)-3-methyl-1H-pyrrol-2(5H)-one], for which the IC50 in assay [1] (setting [3]) was 1 to 10 nM. The same molecule returned a GI50 in assay [2] (setting [4]) of 30 to 300 nM.
The like results for `CC(=O)Nc1cc(-c2cc(F)cc(-c3ccc(-n4ccn(C)c4=O)c(Cl)c3)c2O)cc(N2CC[C@H](N)C2)n1` [Example 503, (S)-N-(6-(3-aminopyrrolidin-1-yl)-4-(3′-chloro-5-fluoro-2-hydroxy-4′-(3-methyl-2-oxo-2,3-dihydro-1H-imidazol-1-yl)-[1,1′-biphenyl]-3-yl)pyridin-2-yl)acetamide] were, in that order, 1 to 10 nM and 0.3 to 30 nM.
In the case of `Cc1cc(-c2cc(-c3ccn[nH]3)cc(N3CCNCC3)c2)c(O)c(-c2ccc(-n3ccn(C)c3=O)c(Cl)c2)c1` [Example 569], the IC50 in assay [1] (setting [3]) lay in the range of 1 to 10 nM. In assay [2] (setting [4]), the GI50 lay within 30 to 300 nM.
Regarding `Cc1cc(-c2ccc(-n3ccn(C)c3=O)c(Cl)c2)c(O)c(-c2cc(N3CC[C@H](N)C3)c3nccnc3c2)c1` [Example 575], the IC50 in assay [1] (setting [3]) lay within 0.01 to 1 nM. Moreover, the GI50 in assay [2] (setting [4]) fell in the range of 0.3 to 30 nM.
In the case of `CC(=O)Nc1c(F)cc(-c2cccc(-c3cc(N4CCNCC4)no3)c2O)cc1OC1CC1` [Example 135, N-(3-cyclopropoxy-5-fluoro-2′-hydroxy-3′-(3-(piperazin-1-yl)isoxazol-5-yl)-[1,1′-biphenyl]-4-yl)acetamide 2,2,2-trifluoroacetate], in assay [1] (setting [3]), the IC50 was 1 to 10 nM. The molecule also came in with a GI50 in assay [2] (setting [4]) of 300 to 3000 nM.
On to `CC(=O)Nc1ccc(-c2cccc(-c3ccc(C(F)(F)F)c(N4CCNCC4)c3)c2O)cc1F` [Example 336, N-(3-fluoro-2′-hydroxy-3″-(piperazin-1-yl)-4″-(trifluoromethyl)-[1,1′:3′,1″-terphenyl]-4-yl)acetamide acetate], for which the half-inhibitory concentration (IC50) in assay [1] (setting [3]) lay in the range of 10 to 100 nM. Moreover, in assay [2] (setting [4]), the GI50 lay in the range of 300 to 3000 nM.
As for `CN1CCN(c2ccc(-c3cc(F)cc(-c4ccc(CO)c(N5CCNCC5)c4)c3O)cc2Cl)C1=O` [Example 358, 1-(3-chloro-5′-fluoro-2′-hydroxy-4″-(hydroxymethyl)-3″-(piperazin-1-yl)-[1,1′:3′,1″-terphenyl]-4-yl)-3-methylimidazolidin-2-one], in assay [1] (setting [3]), the IC50 lay within 1 to 10 nM. Besides, the GI50 in assay [2] (setting [4]) lay in the range of 30 to 300 nM.
As for `Cn1ccn(-c2ccc(-c3cc(F)cc(-c4cccc(N5CC[C@@](C)(O)C5)c4)c3O)cc2Cl)c1=O` [Example 807, (R)-1-(3-chloro-5′-fluoro-2′-hydroxy-3″-(3-hydroxy-3-methylpyrrolidin-1-yl)-[1,1′:3′,1″-terphenyl]-4-yl)-3-methyl-1H-imidazol-2(3H)-one], the IC50 in assay [1] (setting [3]) lay in the range of 1 to 10 nM. The same molecule gave a GI50 in assay [2] (setting [4]) of 30 to 300 nM.
